From ChEMBL document CHEMBL3885881, “DrugMatrix”
Positions of bridges follow the written chain, without caps; N, C: chain ends. Non-standard residues stand in square brackets, D forms with d. Residues, ends and D or L forms follow the SMILES beside them. *: point of attachment. Ileψ(thiazoline)Cys = CC[C@H](C)[C@H](N)C1=N[C@H](C(=O)*)CS1; dOrn = NCCC[C@@H](N)C(=O)O

Species: Rattus norvegicus
Test: DrugMatrix - Regimen: Daily Repeat
Assay type: toxicity, organism-based, Sprague-Dawley
Design: regimen Daily Repeat, gender Male, age 6-8 weeks
Details: in vivo, sc, route subcutaneous, […]; for ABSOLUTE BASOPHIL / ABSOLUTE EOSINOPHIL / ABSOLUTE LYMPHOCYTE / ABSOLUTE MONOCYTE / ABSOLUTE SEGMENTED NEUTROPHIL / BASOPHIL / EOSINOPHIL / ERYTHROCYTE COUNT / HEMATOCRIT / HEMOGLOBIN / LEUKOCYTE COUNT / LYMPHOCYTE / MEAN CORPUSCULAR HEMOGLOBIN / MEAN CORPUSCULAR HEMOGLOBIN CONCENTRATION / MEAN CORPUSCULAR VOLUME / MONOCYTE / NEUTROPHIL / NUCLEATED RED BLOOD CELLS / PLATELET COUNT: tissue Blood; for ALANINE AMINOTRANSFERASE / ALBUMIN / ALKALINE PHOSPHATASE / ASPARTATE AMINOTRANSFERASE / BLOOD UREA NITROGEN / CARBON DIOXIDE / CHLORIDE / CHOLESTEROL / CREATINE PHOSPHOKINASE / CREATININE / GLUCOSE / LACTATE DEHYDROGENASE / LIPASE / PHOSPHORUS / POTASSIUM / SODIUM / TOTAL BILIRUBIN / TOTAL PROTEIN / URIC ACID: tissue Plasma
[1] = 380 mg/kg, 72 h, dose level High, time 3 day
[2] = 380 mg/kg, 120 h, dose level High, time 5 day
[3] = 72 h, dose 7.6 mg/Kg, dose level Low, time 3 day
[4] = 120 h, dose 7.6 mg/Kg, dose level Low, time 5 day

With `CC[C@H](C)[C@H](N)C1=N[C@H](C(=O)N[C@@H](CC(C)C)C(=O)N[C@H](CCC(=O)O)C(=O)N[C@H](C(=O)N[C@H]2CCCCNC(=O)[C@H](CC(N)=O)NC(=O)[C@@H](CC(=O)O)NC(=O)[C@H](Cc3cnc[nH]3)NC(=O)[C@@H](Cc3ccccc3)NC(=O)[C@H]([C@@H](C)CC)NC(=O)[C@@H](CCCN)NC2=O)[C@@H](C)CC)CS1` [BACITRACIN] ({Ileψ(thiazoline)Cys}-L[dE]IK[dOrn]I[dF]H[dD]N; lactam 4-C) the “ABSOLUTE BASOPHIL” value [1] was 0 CELLS/uL, the “ABSOLUTE EOSINOPHIL” value [1] was 42 CELLS/uL and the “ABSOLUTE LYMPHOCYTE” value [1] was 8742.33 CELLS/uL. For the same compound, the “ABSOLUTE MONOCYTE” value [1] was 132.67 CELLS/uL, the “ABSOLUTE SEGMENTED NEUTROPHIL” value [1] was 3249.67 CELLS/uL and the BASOPHIL [1] was 0%. For the same compound, the EOSINOPHIL [1] was 0.33%, the “ERYTHROCYTE COUNT” value [1] was 4.93 x10E6/uL and the HEMATOCRIT [1] was 31.17%. For the same compound, the HEMOGLOBIN [1] was 12.4 G/DL, the “LEUKOCYTE COUNT” value [1] was 12.17 x10E3/uL and the LYMPHOCYTE [1] was 71.67%. The “MEAN CORPUSCULAR HEMOGLOBIN” value [1] was 25.1 pg, the “MEAN CORPUSCULAR HEMOGLOBIN CONCENTRATION” value [1] was 39.8 G/DL and the “MEAN CORPUSCULAR VOLUME” value [1] was 63.1 fL. The MONOCYTE [1] was 1%, the NEUTROPHIL [1] was 27% and the “NUCLEATED RED BLOOD CELLS” value [1] was 0.67 /100WBC. The “PLATELET COUNT” value [1] was 1256.33 x10E3/uL, the “ALANINE AMINOTRANSFERASE” value [1] was 168 u/L and the ALBUMIN [1] was 3.13 G/DL. For the same compound, the “ALKALINE PHOSPHATASE” value [1] was 252 u/L, the “ASPARTATE AMINOTRANSFERASE” value [1] was 595.67 u/L and the “BLOOD UREA NITROGEN” value [1] was 127.67 mg/dL. For the same compound, the “CARBON DIOXIDE” value [1] was 23.33 mmol/L, the CHLORIDE [1] was 90.67 MEQ/L and the CHOLESTEROL [1] was 114.33 mg/dL. For the same compound, the “CREATINE PHOSPHOKINASE” value [1] was 288.33 u/L, the CREATININE [1] was 4.29 mg/dL and the GLUCOSE [1] was 146.67 mg/dL. For the same compound, the “LACTATE DEHYDROGENASE” value [1] was 577.67 u/L, the LIPASE [1] was 8.67 u/L and the PHOSPHORUS [1] was 15.2 mg/dL. For the same compound, the POTASSIUM [1] was 7.31 MEQ/L, the SODIUM [1] was 136.43 MEQ/L and the “TOTAL BILIRUBIN” value [1] was 0.37 mg/dL. For the same compound, the “TOTAL PROTEIN” value [1] was 5.8 G/DL, the “URIC ACID” value [1] was 1.37 mg/dL and the “ABSOLUTE BASOPHIL” value [2] was 0 CELLS/uL. For the same compound, the “ABSOLUTE EOSINOPHIL” value [2] was 0 CELLS/uL, the “ABSOLUTE LYMPHOCYTE” value [2] was 16005 CELLS/uL and the “ABSOLUTE MONOCYTE” value [2] was 832 CELLS/uL. The “ABSOLUTE SEGMENTED NEUTROPHIL” value [2] was 5863 CELLS/uL, the BASOPHIL [2] was 0% and the EOSINOPHIL [2] was 0%. The “ERYTHROCYTE COUNT” value [2] was 5.69 x10E6/uL, the HEMATOCRIT [2] was 34% and the HEMOGLOBIN [2] was 13.77 G/DL. The “LEUKOCYTE COUNT” value [2] was 22.7 x10E3/uL, the LYMPHOCYTE [2] was 70.67% and the “MEAN CORPUSCULAR HEMOGLOBIN” value [2] was 24.2 pg. The “MEAN CORPUSCULAR HEMOGLOBIN CONCENTRATION” value [2] was 40.47 G/DL, the “MEAN CORPUSCULAR VOLUME” value [2] was 59.77 fL and the MONOCYTE [2] was 3.67%. The NEUTROPHIL [2] was 25.67%, the “NUCLEATED RED BLOOD CELLS” value [2] was 0.33 /100WBC and the “PLATELET COUNT” value [2] was 1853.67 x10E3/uL. For the same compound, the “ALANINE AMINOTRANSFERASE” value [2] was 104 u/L, the ALBUMIN [2] was 3.33 G/DL and the “ALKALINE PHOSPHATASE” value [2] was 228.33 u/L. For the same compound, the “ASPARTATE AMINOTRANSFERASE” value [2] was 305.67 u/L, the “BLOOD UREA NITROGEN” value [2] was 48 mg/dL and the “CARBON DIOXIDE” value [2] was 25.33 mmol/L. The CHLORIDE [2] was 96.33 MEQ/L, the CHOLESTEROL [2] was 99.67 mg/dL and the “CREATINE PHOSPHOKINASE” value [2] was 335 u/L. For the same compound, the CREATININE [2] was 0.95 mg/dL, the GLUCOSE [2] was 137.67 mg/dL and the “LACTATE DEHYDROGENASE” value [2] was 484.67 u/L. The LIPASE [2] was 9 u/L, the PHOSPHORUS [2] was 11.2 mg/dL and the POTASSIUM [2] was 6.3 MEQ/L. The SODIUM [2] was 133.53 MEQ/L, the “TOTAL BILIRUBIN” value [2] was 0.17 mg/dL and the “TOTAL PROTEIN” value [2] was 6.1 G/DL. The “URIC ACID” value [2] was 2.73 mg/dL, the “ABSOLUTE BASOPHIL” value [3] was 0 CELLS/uL and the “ABSOLUTE EOSINOPHIL” value [3] was 0 CELLS/uL. For the same compound, the “ABSOLUTE LYMPHOCYTE” value [3] was 8685.33 CELLS/uL, the “ABSOLUTE MONOCYTE” value [3] was 135 CELLS/uL and the “ABSOLUTE SEGMENTED NEUTROPHIL” value [3] was 1146.33 CELLS/uL. For the same compound, the BASOPHIL [3] was 0%, the EOSINOPHIL [3] was 0% and the “ERYTHROCYTE COUNT” value [3] was 6.24 x10E6/uL. For the same compound, the HEMATOCRIT [3] was 39.37%, the HEMOGLOBIN [3] was 15.53 G/DL and the “LEUKOCYTE COUNT” value [3] was 9.97 x10E3/uL. The LYMPHOCYTE [3] was 87.33%, the “MEAN CORPUSCULAR HEMOGLOBIN” value [3] was 24.9 pg and the “MEAN CORPUSCULAR HEMOGLOBIN CONCENTRATION” value [3] was 39.47 G/DL. The “MEAN CORPUSCULAR VOLUME” value [3] was 63.13 fL, the MONOCYTE [3] was 1.33% and the NEUTROPHIL [3] was 11.33%. The “NUCLEATED RED BLOOD CELLS” value [3] was 0 /100WBC, the “PLATELET COUNT” value [3] was 1341.67 x10E3/uL and the “ALANINE AMINOTRANSFERASE” value [3] was 22.67 u/L. For the same compound, the ALBUMIN [3] was 4.77 G/DL, the “ALKALINE PHOSPHATASE” value [3] was 372.67 u/L and the “ASPARTATE AMINOTRANSFERASE” value [3] was 95 u/L. For the same compound, the “BLOOD UREA NITROGEN” value [3] was 17.33 mg/dL, the “CARBON DIOXIDE” value [3] was 22 mmol/L and the CHLORIDE [3] was 105.67 MEQ/L. The CHOLESTEROL [3] was 79.33 mg/dL, the “CREATINE PHOSPHOKINASE” value [3] was 677 u/L and the CREATININE [3] was 0.21 mg/dL. For the same compound, the GLUCOSE [3] was 182 mg/dL, the “LACTATE DEHYDROGENASE” value [3] was 728.67 u/L and the LIPASE [3] was 9 u/L. For the same compound, the PHOSPHORUS [3] was 14.07 mg/dL, the POTASSIUM [3] was 6.5 MEQ/L and the SODIUM [3] was 151.33 MEQ/L. The “TOTAL BILIRUBIN” value [3] was 0.2 mg/dL, the “TOTAL PROTEIN” value [3] was 6.97 G/DL and the “URIC ACID” value [3] was 2.53 mg/dL. The “ABSOLUTE BASOPHIL” value [4] was 0 CELLS/uL, the “ABSOLUTE EOSINOPHIL” value [4] was 40 CELLS/uL and the “ABSOLUTE LYMPHOCYTE” value [4] was 10682 CELLS/uL. The “ABSOLUTE MONOCYTE” value [4] was 80 CELLS/uL, the “ABSOLUTE SEGMENTED NEUTROPHIL” value [4] was 864.67 CELLS/uL and the BASOPHIL [4] was 0%. The EOSINOPHIL [4] was 0.33%, the “ERYTHROCYTE COUNT” value [4] was 4.88 x10E6/uL and the HEMATOCRIT [4] was 31.97%. The HEMOGLOBIN [4] was 12.4 G/DL, the “LEUKOCYTE COUNT” value [4] was 11.67 x10E3/uL and the LYMPHOCYTE [4] was 90.67%. For the same compound, the “MEAN CORPUSCULAR HEMOGLOBIN” value [4] was 25.37 pg, the “MEAN CORPUSCULAR HEMOGLOBIN CONCENTRATION” value [4] was 38.97 G/DL and the “MEAN CORPUSCULAR VOLUME” value [4] was 65.07 fL. The MONOCYTE [4] was 0.67%, the NEUTROPHIL [4] was 8.33% and the “NUCLEATED RED BLOOD CELLS” value [4] was 0.67 /100WBC. For the same compound, the “PLATELET COUNT” value [4] was 938.67 x10E3/uL, the “ALANINE AMINOTRANSFERASE” value [4] was 50 u/L and the ALBUMIN [4] was 4.2 G/DL. The “ALKALINE PHOSPHATASE” value [4] was 312.33 u/L, the “ASPARTATE AMINOTRANSFERASE” value [4] was 77 u/L and the “BLOOD UREA NITROGEN” value [4] was 17.33 mg/dL. The “CARBON DIOXIDE” value [4] was 27 mmol/L, the CHLORIDE [4] was 103.67 MEQ/L and the CHOLESTEROL [4] was 66 mg/dL. For the same compound, the “CREATINE PHOSPHOKINASE” value [4] was 146.67 u/L, the CREATININE [4] was 0.2 mg/dL and the GLUCOSE [4] was 146.33 mg/dL. For the same compound, the “LACTATE DEHYDROGENASE” value [4] was 121 u/L, the LIPASE [4] was 8.67 u/L and the PHOSPHORUS [4] was 12.63 mg/dL. The POTASSIUM [4] was 6.86 MEQ/L, the SODIUM [4] was 148.7 MEQ/L and the “TOTAL BILIRUBIN” value [4] was 0.2 mg/dL. The “TOTAL PROTEIN” value [4] was 6 G/DL and the “URIC ACID” value [4] was 1.4 mg/dL.
